Test results from PubChem BioAssay AID602355 (The Scripps Research Institute Molecular Screening Center, 2012).
Active and inactive are the calls of the source. The rule behind the calls is not given here.

Experiments:
Test in all cases: serine hydrolase panel inhibition in mouse proteome, late-stage follow-up, selectivity assay for DAGLb inhibitor project, gel-based competitive ABPP, fluorescence (AID 602355)
[1] = molecular target: Monoacylglycerol lipase ABHD6 (Mus musculus) (UniProt Q8R2Y0); conditions: FP-rhodamine fluorescence, at 10 µM (top of the series)
LYPLA2 = conditions: FP-rhodamine fluorescence, at 10 µM (top of the series)
ABHD12 = conditions: FP-rhodamine fluorescence, at 10 µM (top of the series)
[2] = molecular target: Acyl-protein thioesterase 1 (Mus musculus) (UniProt P97823); conditions: FP-rhodamine fluorescence, LYPLA1, at 10 µM (top of the series)
MAGL = conditions: FP-rhodamine fluorescence, at 10 µM (top of the series)
[3] = molecular target: Diacylglycerol lipase-beta (Mus musculus) (UniProt Q91WC9); conditions: FP-rhodamine fluorescence, DAGLb, at 10 µM (top of the series)
ABHD11 = conditions: FP-rhodamine fluorescence, at 10 µM (top of the series)
PNPLA6 = conditions: FP-rhodamine fluorescence, at 10 µM (top of the series)
FAAH = conditions: FP-rhodamine fluorescence, at 10 µM (top of the series)
[4] = molecular target: Platelet-activating factor acetylhydrolase 2, cytoplasmic (Mus musculus) (UniProt Q8VDG7); conditions: FP-rhodamine fluorescence, PAFAH2, at 10 µM (top of the series)
[5] = molecular target: Platelet-activating factor acetylhydrolase (Mus musculus) (UniProt Q60963); conditions: FP-rhodamine fluorescence, PLA2G7, at 10 µM (top of the series)
Platelet-activating factor acetylhydrolase (Mus musculus), sequence (Q60963 whole entry, looked up): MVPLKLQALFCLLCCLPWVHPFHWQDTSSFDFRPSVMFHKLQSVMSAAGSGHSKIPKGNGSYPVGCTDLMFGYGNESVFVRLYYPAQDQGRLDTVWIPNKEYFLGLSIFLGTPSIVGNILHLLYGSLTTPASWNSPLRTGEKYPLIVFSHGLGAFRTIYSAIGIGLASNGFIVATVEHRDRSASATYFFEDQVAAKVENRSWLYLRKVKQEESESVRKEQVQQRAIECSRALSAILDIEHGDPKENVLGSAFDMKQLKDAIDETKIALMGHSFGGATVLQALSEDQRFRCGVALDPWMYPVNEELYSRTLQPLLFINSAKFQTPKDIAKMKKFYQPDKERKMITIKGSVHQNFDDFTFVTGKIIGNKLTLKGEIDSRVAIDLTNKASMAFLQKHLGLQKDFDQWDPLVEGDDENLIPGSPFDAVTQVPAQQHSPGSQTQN

Monoacylglycerol lipase ABHD6 (Mus musculus), sequence (Q8R2Y0 whole entry, looked up): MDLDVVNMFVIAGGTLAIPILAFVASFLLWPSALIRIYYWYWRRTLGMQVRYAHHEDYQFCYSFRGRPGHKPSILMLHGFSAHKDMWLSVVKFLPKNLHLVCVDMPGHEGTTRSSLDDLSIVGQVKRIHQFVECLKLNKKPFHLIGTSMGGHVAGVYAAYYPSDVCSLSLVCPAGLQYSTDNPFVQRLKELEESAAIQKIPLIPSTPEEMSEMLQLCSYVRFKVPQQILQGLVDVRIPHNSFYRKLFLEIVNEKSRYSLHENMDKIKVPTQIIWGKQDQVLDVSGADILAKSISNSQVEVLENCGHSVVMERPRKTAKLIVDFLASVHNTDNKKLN
Acyl-protein thioesterase 1 (Mus musculus), sequence (P97823 whole entry, looked up): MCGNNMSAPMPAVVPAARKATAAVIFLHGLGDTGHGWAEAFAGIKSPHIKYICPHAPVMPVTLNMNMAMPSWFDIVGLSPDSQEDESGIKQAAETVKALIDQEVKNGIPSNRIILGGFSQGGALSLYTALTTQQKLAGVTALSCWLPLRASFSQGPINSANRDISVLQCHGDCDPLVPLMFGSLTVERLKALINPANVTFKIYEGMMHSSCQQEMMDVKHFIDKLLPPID
Platelet-activating factor acetylhydrolase 2, cytoplasmic (Mus musculus), sequence (Q8VDG7 whole entry, looked up): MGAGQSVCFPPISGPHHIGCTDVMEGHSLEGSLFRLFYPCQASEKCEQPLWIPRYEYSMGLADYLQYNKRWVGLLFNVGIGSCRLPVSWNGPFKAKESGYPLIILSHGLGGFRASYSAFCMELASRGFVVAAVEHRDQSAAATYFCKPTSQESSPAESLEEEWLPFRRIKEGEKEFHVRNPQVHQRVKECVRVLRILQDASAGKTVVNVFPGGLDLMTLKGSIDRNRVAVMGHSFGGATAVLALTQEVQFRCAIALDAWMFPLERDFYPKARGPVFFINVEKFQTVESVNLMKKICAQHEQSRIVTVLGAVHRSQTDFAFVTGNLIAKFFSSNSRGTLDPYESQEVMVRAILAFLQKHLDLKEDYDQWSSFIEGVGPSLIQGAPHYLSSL
Diacylglycerol lipase-beta (Mus musculus), sequence (Q91WC9 whole entry, looked up): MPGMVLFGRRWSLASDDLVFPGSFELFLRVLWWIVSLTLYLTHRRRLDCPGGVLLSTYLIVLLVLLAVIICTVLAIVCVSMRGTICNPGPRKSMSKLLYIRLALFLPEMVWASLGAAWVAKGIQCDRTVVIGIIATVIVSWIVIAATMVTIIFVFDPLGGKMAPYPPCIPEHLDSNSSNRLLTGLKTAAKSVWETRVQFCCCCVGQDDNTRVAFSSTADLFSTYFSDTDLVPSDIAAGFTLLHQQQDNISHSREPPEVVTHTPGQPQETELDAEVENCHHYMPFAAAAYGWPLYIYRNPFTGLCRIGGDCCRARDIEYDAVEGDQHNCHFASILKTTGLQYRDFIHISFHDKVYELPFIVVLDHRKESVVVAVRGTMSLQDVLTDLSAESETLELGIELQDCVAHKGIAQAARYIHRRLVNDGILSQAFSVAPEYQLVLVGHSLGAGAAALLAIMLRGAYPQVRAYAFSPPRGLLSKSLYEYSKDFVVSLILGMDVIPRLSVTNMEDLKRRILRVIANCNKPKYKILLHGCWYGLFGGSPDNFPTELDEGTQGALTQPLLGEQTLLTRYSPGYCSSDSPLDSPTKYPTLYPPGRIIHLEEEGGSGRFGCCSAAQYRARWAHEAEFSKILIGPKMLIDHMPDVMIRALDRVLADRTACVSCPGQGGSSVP

inhibition [1]	inhibition (LYPLA2)	inhibition (ABHD12)	inhibition [2]	inhibition (MAGL)	inhibition [3]	inhibition (ABHD11)	inhibition (PNPLA6)	inhibition (FAAH)	SMILES	inhibition [4]	inhibition [5]
100%	15% (inactive)	0% (inactive)	15% (inactive)	0% (inactive)	20% (inactive)	0% (inactive)	55% (inactive)	70%	COc1ccc(-c2ccc(-c3cn(C(=O)N4CCCCC4c4ccccc4)nn3)cc2)cc1 (stereo not drawn)	–	–
100%	0% (inactive)	0% (inactive)	0% (inactive)	100%	95%	0% (inactive)	–	0% (inactive)	COc1ccccc1-c1ccc(-c2cn(C(=O)N3CCCCC3Cc3ccccc3)nn2)cc1 (stereo not drawn)	15% (inactive)	85%

SMILES	inhibition [1]	inhibition (LYPLA2)	inhibition (ABHD12)	inhibition [2]	inhibition (MAGL)	inhibition [3]	inhibition (ABHD11)	inhibition (PNPLA6)	inhibition (FAAH)	inhibition [4]	inhibition [5]
O=C(N1CCCCC1Cc1ccccc1)n1cc(-c2ccc(-c3ccccc3)cc2)nn1 (stereo not drawn)	100%	0% (inactive)	20% (inactive)	0% (inactive)	0% (inactive)	–	0% (inactive)	–	25% (inactive)	80% (inactive)	100%
